The species entered for test [1] is Homo sapiens. Nature of the test: Induction of adipogenesis in human bone marrow-derived mesenchymal stem cells assessed as increase in adiponectin production at 10 uM measured on day 5 in presence of IDX by ELISA. Format: functional. On the technique in general: In an ELISA, binding on a coated surface is turned into a signal by an enzyme label.
Test [2] is filed under the species Homo sapiens. Kind of test: Induction of adipogenesis in human bone marrow-derived mesenchymal stem cells assessed as increase in adiponectin production at 1 uM measured on day 5 in presence of IDX by ELISA. Format: functional.
Test [3] deals with T1, Peroxisome proliferator-activated receptor gamma (Homo sapiens) (UniProt P37231).
T1 sequence (whole entry): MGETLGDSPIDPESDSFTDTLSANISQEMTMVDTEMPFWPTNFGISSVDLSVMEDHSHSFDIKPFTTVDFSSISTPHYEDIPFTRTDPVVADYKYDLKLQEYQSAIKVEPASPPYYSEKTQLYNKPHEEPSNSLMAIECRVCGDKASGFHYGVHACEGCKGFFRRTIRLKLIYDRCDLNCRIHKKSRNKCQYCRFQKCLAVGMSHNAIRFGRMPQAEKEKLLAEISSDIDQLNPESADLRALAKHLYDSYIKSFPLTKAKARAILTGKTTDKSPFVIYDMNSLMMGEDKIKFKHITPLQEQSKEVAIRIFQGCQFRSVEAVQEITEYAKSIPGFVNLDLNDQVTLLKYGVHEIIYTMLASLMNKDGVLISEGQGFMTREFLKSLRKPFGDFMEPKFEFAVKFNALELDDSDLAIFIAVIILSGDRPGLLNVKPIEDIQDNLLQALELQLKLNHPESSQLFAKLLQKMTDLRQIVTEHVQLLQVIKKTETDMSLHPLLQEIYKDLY
Nature of the test: Displacement of fluormone Pan-PPAR Green from human GST-tagged PPARgamma-LBD at 30 uM by TR-FRET assay relative to control. Background: TR-FRET usually uses a lanthanide donor and a delayed reading to cut background.

Test [4] concerns the target T2, Oxysterols receptor LXR-beta (Homo sapiens) (UniProt P55055).
T2 sequence (whole entry): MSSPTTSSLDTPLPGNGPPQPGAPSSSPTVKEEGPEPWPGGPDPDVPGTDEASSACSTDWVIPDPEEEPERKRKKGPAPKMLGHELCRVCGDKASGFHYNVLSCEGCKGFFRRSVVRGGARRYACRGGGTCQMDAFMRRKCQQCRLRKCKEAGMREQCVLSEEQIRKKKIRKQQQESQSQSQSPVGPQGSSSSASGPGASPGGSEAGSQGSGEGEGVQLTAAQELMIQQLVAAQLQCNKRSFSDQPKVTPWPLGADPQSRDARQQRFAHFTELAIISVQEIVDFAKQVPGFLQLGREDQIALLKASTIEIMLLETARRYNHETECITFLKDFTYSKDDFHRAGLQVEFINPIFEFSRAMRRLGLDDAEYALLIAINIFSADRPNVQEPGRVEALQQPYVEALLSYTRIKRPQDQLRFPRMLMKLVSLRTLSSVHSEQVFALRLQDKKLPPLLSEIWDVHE
Kind of test: Transactivation of LXRbeta (unknown origin) at 30 uM by TR-FRET assay.

Test [5] deals with T3, Glucocorticoid receptor (Homo sapiens) (UniProt P04150).
T3 sequence (whole entry): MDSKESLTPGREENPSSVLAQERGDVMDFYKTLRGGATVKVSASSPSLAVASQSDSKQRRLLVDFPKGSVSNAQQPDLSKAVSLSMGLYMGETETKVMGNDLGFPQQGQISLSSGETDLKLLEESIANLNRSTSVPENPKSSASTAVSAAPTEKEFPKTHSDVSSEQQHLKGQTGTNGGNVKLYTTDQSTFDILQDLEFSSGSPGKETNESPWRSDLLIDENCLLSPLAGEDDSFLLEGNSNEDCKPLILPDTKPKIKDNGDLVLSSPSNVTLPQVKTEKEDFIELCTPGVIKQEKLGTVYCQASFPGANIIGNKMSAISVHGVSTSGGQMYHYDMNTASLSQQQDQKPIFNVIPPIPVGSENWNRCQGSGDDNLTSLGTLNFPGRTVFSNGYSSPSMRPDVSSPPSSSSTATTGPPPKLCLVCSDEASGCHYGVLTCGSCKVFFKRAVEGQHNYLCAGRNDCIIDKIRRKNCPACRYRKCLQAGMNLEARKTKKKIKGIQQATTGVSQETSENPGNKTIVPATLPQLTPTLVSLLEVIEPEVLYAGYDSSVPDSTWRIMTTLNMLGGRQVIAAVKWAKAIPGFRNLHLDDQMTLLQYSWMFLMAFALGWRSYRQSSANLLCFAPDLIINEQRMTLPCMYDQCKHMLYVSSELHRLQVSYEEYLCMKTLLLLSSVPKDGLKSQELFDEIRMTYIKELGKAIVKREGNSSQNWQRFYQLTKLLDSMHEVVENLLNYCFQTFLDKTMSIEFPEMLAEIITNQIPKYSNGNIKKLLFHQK
Nature of the test: Displacement of fluormone GS1 from human GST-tagged glucocorticoid receptor-LBD at 30 uM by TR-FRET assay.

For test [6], the target named is T4, Peroxisome proliferator-activated receptor delta (Homo sapiens) (UniProt Q03181).
T4 sequence (whole entry): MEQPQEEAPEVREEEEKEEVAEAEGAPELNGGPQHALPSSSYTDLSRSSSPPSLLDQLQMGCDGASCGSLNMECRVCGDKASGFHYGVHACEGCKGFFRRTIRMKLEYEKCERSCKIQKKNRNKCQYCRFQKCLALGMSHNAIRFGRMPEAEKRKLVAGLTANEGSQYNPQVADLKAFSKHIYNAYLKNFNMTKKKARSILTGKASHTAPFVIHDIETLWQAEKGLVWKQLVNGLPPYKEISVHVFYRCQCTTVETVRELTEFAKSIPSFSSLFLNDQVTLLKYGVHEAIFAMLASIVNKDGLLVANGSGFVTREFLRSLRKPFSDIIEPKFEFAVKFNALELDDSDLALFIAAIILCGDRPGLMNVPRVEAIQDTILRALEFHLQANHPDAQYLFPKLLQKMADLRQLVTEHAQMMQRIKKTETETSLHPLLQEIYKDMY
Kind of test: Displacement of fluormone Pan-PPAR Green from human GST-tagged PPARdelta-LBD at 30 uM by TR-FRET assay.

The target of test [7] is T5, Oxysterols receptor LXR-alpha (Homo sapiens) (UniProt Q13133).
T5 sequence (whole entry): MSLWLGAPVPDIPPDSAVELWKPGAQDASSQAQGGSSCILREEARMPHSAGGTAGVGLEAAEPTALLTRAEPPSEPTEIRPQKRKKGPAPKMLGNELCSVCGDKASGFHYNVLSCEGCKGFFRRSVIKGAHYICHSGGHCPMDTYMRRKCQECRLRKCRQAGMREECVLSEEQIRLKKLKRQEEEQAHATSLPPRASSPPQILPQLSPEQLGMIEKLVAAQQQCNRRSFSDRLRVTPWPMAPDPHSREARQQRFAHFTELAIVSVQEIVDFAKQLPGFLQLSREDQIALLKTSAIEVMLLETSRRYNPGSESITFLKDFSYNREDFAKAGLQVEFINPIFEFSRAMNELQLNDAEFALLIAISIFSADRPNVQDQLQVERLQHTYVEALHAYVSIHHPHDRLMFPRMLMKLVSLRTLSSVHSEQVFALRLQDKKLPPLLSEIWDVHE
Kind of test: Transactivation of recombinant human GST-tagged LXRalpha-LBD at 30 uM by TR-FRET assay.

The species entered for test [8] is Homo sapiens. Kind of test: Induction of adipogenesis in human bone marrow-derived mesenchymal stem cells assessed as increase in adiponectin production at 60 uM measured on day 5 in presence of IDX by ELISA. The test is classed as functional.
Test [9] has as its target T6, Peroxisome proliferator-activated receptor alpha (Homo sapiens) (UniProt Q07869).
T6 sequence (whole entry): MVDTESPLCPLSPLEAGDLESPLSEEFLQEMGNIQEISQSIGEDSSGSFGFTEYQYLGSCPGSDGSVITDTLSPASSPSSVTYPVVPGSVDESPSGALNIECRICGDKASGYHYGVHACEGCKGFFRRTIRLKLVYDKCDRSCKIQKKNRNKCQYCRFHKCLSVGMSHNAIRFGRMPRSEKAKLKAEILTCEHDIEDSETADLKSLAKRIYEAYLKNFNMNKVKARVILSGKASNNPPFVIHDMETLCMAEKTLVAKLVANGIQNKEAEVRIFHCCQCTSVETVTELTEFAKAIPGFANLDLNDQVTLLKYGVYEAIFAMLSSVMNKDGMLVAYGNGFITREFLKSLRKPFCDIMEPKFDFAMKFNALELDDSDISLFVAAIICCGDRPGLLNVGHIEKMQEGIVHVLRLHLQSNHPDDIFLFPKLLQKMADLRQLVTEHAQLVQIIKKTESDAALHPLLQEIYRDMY
Nature of the test: Displacement of fluormone Pan-PPAR Green from human GST-tagged PPARalpha-LBD at 30 uM by TR-FRET assay.

For test [10], the species on record is Homo sapiens. Nature of the test: Induction of adipogenesis in human bone marrow-derived mesenchymal stem cells assessed as increase in adiponectin production at 100 uM measured on day 5 in presence of IDX by ELISA. The test is classed as functional.
In test [11] the target is T7, Peroxisome proliferator-activated receptor gamma (Homo sapiens, UniProt P37231).
T7 sequence (P37231 whole entry): T1 sequence (whole entry)
Nature of the test: Displacement of fluormone Pan-PPAR Green from human GST-tagged PPARgamma-LBD by TR-FRET assay.

Test [12] concerns the target T1, Peroxisome proliferator-activated receptor gamma (Homo sapiens). Kind of test: Displacement of fluormone Pan-PPAR Green from human GST-tagged PPARgamma-LBD at 10 uM by TR-FRET assay relative to control.
In test [13] the target is T6, Peroxisome proliferator-activated receptor alpha (Homo sapiens). Nature of the test: Displacement of fluormone Pan-PPAR Green from human GST-tagged PPARalpha-LBD at 10 uM by TR-FRET assay.
Test [14] deals with T3, Glucocorticoid receptor (Homo sapiens). Kind of test: Displacement of fluormone GS1 from human GST-tagged glucocorticoid receptor-LBD at 10 uM by TR-FRET assay.
The species entered for test [15] is Homo sapiens. Nature of the test: Induction of adipogenesis in human bone marrow-derived mesenchymal stem cells assessed as increase in adiponectin production measured on day 5 in presence of IDX by ELISA. The test is classed as functional.
For test [16], the target named is T1, Peroxisome proliferator-activated receptor gamma (Homo sapiens). Kind of test: Partial agonist activity at PPARgamma in human bone marrow-derived mesenchymal stem cells assessed as inhibition of troglitazone-induced upregulation of adiponectin mRNA level at 3 to 10 uM measured on day 3 in presence of IDX by qRT-PCR analysis. For orientation: Real-time PCR tracks product formation cycle by cycle.

Test [17] has the same target. Kind of test: Partial agonist activity at PPARgamma in human bone marrow-derived mesenchymal stem cells assessed as inhibition of troglitazone-induced upregulation of PPARgamma mRNA level at 3 to 10 uM measured on day 3 in presence of IDX by qRT-PCR analysis.
The species named for test [18] is Homo sapiens. Nature of the test: Induction of adipogenesis in human bone marrow-derived mesenchymal stem cells assessed as increase in lipid droplet accumulation at 30 uM measured on day 5 in presence of IDX by ORO staining based spectrophotometric analysis. Format: functional.
The target in test [19] is T2, Oxysterols receptor LXR-beta (Homo sapiens). Kind of test: Transactivation of LXRbeta (unknown origin) at 10 uM by TR-FRET assay.
The target of test [20] is T1, Peroxisome proliferator-activated receptor gamma (Homo sapiens). Nature of the test: Partial agonist activity at PPARgamma in human bone marrow-derived mesenchymal stem cells assessed as inhibition of troglitazone-induced upregulation of FABP4 mRNA level at 3 to 10 uM measured on day 3 in presence of IDX by qRT-PCR analysis.
Test [21] concerns the target T5, Oxysterols receptor LXR-alpha (Homo sapiens). Nature of the test: Transactivation of recombinant human GST-tagged LXRalpha-LBD at 10 uM by TR-FRET assay.
The target in test [22] is T1, Peroxisome proliferator-activated receptor gamma (Homo sapiens). Kind of test: Partial agonist activity at PPARgamma in human bone marrow-derived mesenchymal stem cells assessed as inhibition of troglitazone-induced increase in adiponectin level at 3 to 10 uM measured on day 5 in presence of IDX by ELISA.
The target of test [23] is T4, Peroxisome proliferator-activated receptor delta (Homo sapiens). Kind of test: Displacement of fluormone Pan-PPAR Green from human GST-tagged PPARdelta-LBD at 10 uM by TR-FRET assay.

The source made the active and inactive calls. The calls are words filed in the database; no cut-off is given here.

The record followed here is ChEMBL document CHEMBL4184241, “2-Formyl-komarovicine promotes adiponectin production in human mesenchymal stem cells through PPARγ partial agonism” (Bioorg Med Chem, 2018).

As a reminder, the Ki is the equilibrium dissociation constant of an inhibitor or competing ligand from its target. Low readings indicate higher affinity, high ones lower affinity.

`COc1ccc(Cl)cc1C(=O)NCCc1ccc(S(=O)(=O)NC(=O)NC2CCCCC2)cc1`: the outcome in the test listed under Homo sapiens [1] was Active.
In the case of `Cc1c(C)c2c(c(C)c1O)CCC(C)(COc1ccc(CC3SC(=O)NC3=O)cc1)O2` (stereo not drawn), the outcome in the test filed under Homo sapiens [2] was Active.
In [3], `c1cnc2c(C3NCCc4c3[nH]c3ccccc43)cccc2c1` (stereo not drawn) returned an Activity of 24 to 36%. Further, the outcome in [4], in test [5], in [6], in [7] and in [9] was inactive. Further, in the test listed under Homo sapiens [8], the result was Active.
In the case of `CC(=O)Oc1ccccc1C(=O)O`, in the test filed under Homo sapiens [10], the outcome was Active.
Take `O=CN1CCc2c([nH]c3ccccc23)C1c1cccc2cccnc12` (stereo not drawn): in test [11], the Ki worked out at 7.1 µM. Moreover, the Activity in test [12] is 58%; in the test filed under Homo sapiens [15], “Dose-dependent effect”. In addition, the result in [13], in test [14], in test [19], in test [21] and in [23] was inactive. Moreover, the inhibition entry in test [16], in [17], in test [20] and in [22] was “Active” each time. Besides, the result in the test listed under Homo sapiens [18] was Active.
